Measured values: patent publication US5137906A, “Treatment of central nervous system disorders with benzimidazole angiotensin-II receptor antagonists” (E. I. Du Pont de Nemours and Company, priority 1990, dated 1992)
Entries after “also recorded” stand apart in the source; their conditions may differ. One block for each molecule: values may come before it.

How the values were obtained:
[1] = system: passive avoidance (PA) response; details: in words; injected into dorsal neostriatum; cited from earlier work
[2] = system: release of ACh in entorhinal cortex from rat brain; details: in words; cited from earlier work
[3] = system: renin-induced disruption of passive avoidance retention; experiment: renin-disrupted passive avoidance retention; format: in vivo, male Sprague-Dawley rats; details: for protection against / prevention of renin-induced amnesia: co-administered with renin IVT
Procedure: Experimentally naive male Sprague-Dawley rats 100 to 125 days old (Charles River Breeding Laboratories, Kingston, N.Y.), weighing between 175 to 200 gm were used. The animals were housed four per cage (45.0 L×20.0 H×26.0 W cm) with free access to food and water. They were maintained on a 12 h light/dark cycle (lights on 0600 h) and at a room temperature of 22°±1° C. with relative humidity of 50±10%.
The experimental sessions were conducted in a two-compartment passive avoidance box. One compartment, made of clear plastic with a perforated clear plastic floor, measured 21(L)×24.5(H)×17(W) cm and was illuminated with a 60 watt incandescent light bulb placed 36 cm above the floor. The other compartment, made of black plastic, measured 30.5 (L)×20.3 (H)×21.5 (W) cm with a floor made of 4 mm stainless steel rods spaced 1.2 cm apart. A grid floor shocker (Coulbourn Instruments) was connected to the steel rods and provided scrambled footshock. The two compartments were separated by a solenoid-operated slide door (Lafayette Instrument Co., Lafayette, Ind.). An electronic counter (Coulbourn Instruments), triggered by the opening or closing of the slide door, recorded acquisition and retention latencies (latencies were defined as the time it took an animal to enter the dark compartment).
Passive avoidance training began by placing the rat into the clear compartment of the two-compartment passive avoidance box. Following a 10 sec delay, the slide door for the dark compartment was raised. Once the rat moved completely into the dark compartment (all four paws on the shock grid floor) the slide door was lowered, and after a 10 sec. delay, a 1.0 mA shock was applied to the grid floor for three sec. A second three s shock was delivered after an additional 10 sec delay. The rats were immediately removed from the dark compartment and returned to their home cage. A retention test was given 24 h later. It proceeded in the same manner as the training session except that no shock was applied to the grid floor when the rats were provided access to the dark compartment for a maximum of 300 sec.
Doses are expressed as the free base weight of each compound.

[4] = system: AII binding sites in the brain; experiment: binding of AII antagonists to sections of brain slices; details: in words
[5] = system: AII receptor subtype-1 (AII-1); details: cited from earlier work
[6] = system: AII receptor subtype-2 (AII-2); details: cited from earlier work
avoidance learning = details: in words, cited from earlier work
[7] = system: light/dark habituation performance; details: in words; subchronic treatment; cited from earlier work
[8] = system: anticholinergic scopolamine-induced disruption of performance; details: in words; daily treatment; cited from earlier work
uphill avoidance = details: in words; 30 mg/kg PO, acute; cited from earlier work
[9] = system: scopolamine-induced amnesia of a PA response; details: in words; 1, 3 and 10 mg/kg PO three times per day; cited from earlier work
[10] = system: scopolamine-induced impairment of eight arm radial maze performance; details: in words; 3 mg/kg IP; cited from earlier work
[11] = system: ACh in the striatum and hypothalamus; details: in words; acute or repeated administration; cited from earlier work
[12] = system: AII in cerebrospinal fluid (CSF); details: after renin into lateral ventricle; increased from 40; cited from earlier work
[13] = compound 10 μg/5 μL IVT + renin 1.0 μg/5 μL IVT
[14] = compound 30 μg/5 μL IVT + renin 1.0 μg/5 μL IVT
[15] = compound 100 μg/5 μL IVT + renin 1.0 μg/5 μL IVT

Molecule: Angiotensin II (DRVYIHPF; Angiotensin-2; UniProt P01019 25-32, looked up) [AII]
effect on retention of a PA response [1]: disruption in retention of a PA response
effect on basal levels of ACh release [2]: without effects on basal levels
effect on potassium-stimulated release of ACh [2]: reduced potassium-stimulated release of ACh

Molecule: CCCc1nc(C(F)(F)F)c(C(=O)O)n1Cc1ccc(-c2ccccc2-c2nnn[nH]2)cc1 [Compound C, 2-n-propyl-1-[(2'-(1H-tetrazol-5-yl)biphenyl-4-yl)methyl]-4-trifluoromethylimidazole-5-carboxylic acid]
Median Retention Latency [3, 13]: 264 s
Median Retention Latency [3, 14]: 300 s
Median Retention Latency [3, 15]: 34.5 s
protection against / prevention of renin-induced amnesia ([3]; in words): protected against the amnesia

sensitivity of AII binding sites in the brain, minor clusters (AII-1 receptors) ([4]; AII-1): DTT-sensitive
sensitivity of the majority of AII binding sites in the brain (AII-2 receptors) [4]: DTT-sensitive
Molecule: O[C@H](CS)[C@H](O)CS (racemic) [DTT, dithiothreitol]
inactivation of AII-1 receptor by DTT ([5]; in words): particularly sensitive to inactivation
inactivation of AII-2 receptor by DTT ([6]; in words): resistant

sensitivity of the majority of AII binding sites in the brain (AII-2 receptors) [4]: EXP655-sensitive
Molecule: Cc1cc(Cn2cnc3c2CC(C(=O)O)N(C(=O)C(c2ccccc2)c2ccccc2)C3)ccc1N (stereo not drawn) [EXP655, 1-(4-amino-3-methylphenyl)methyl-5-diphenylacetyl-4,5,6,7-tetrahydro-1H-imidazo[4,5-c]pyridine-6-carboxylic acid]
Median Retention Latency ([3]; compound 0.1 μg/5 μL IVT + renin 1.0 μg/5 μL IVT): 19 s
Median Retention Latency ([3]; compound 0.3 μg/5 μL IVT + renin 1.0 μg/5 μL IVT): 22 s
Median Retention Latency ([3]; compound 1.0 μg/5 μL IVT + renin 1.0 μg/5 μL IVT): 15 s
Median Retention Latency ([3]; compound 3.0 μg/5 μL IVT + renin 1.0 μg/5 μL IVT): 29 s
Median Retention Latency [3, 13]: 15 s
Median Retention Latency [3, 14]: 67 s
Median Retention Latency [3, 15]: 16 s
protection against / prevention of renin-induced amnesia ([3]; in words): much less effective in preventing the amnesia
IC50 ([5]; AII-1 site, rat adrenal cortex, Chiu et al. 1989, read-out: inhibitory constant IC50 value): ~300 µM
affinity/specificity for the AII-1 site ([5]; in words, rat adrenal cortex): very low affinity
IC50 ([6]; AII-2 site, rat adrenal cortex, Chiu et al. 1989, read-out: inhibitory constant IC50 value): ~0.1 µM

Molecule: lysine-8-vasopressin
effect on retention of a PA response [1]: no effect

Molecule: CCCc1nc(C(F)(F)F)c(CO)n1Cc1ccc(-c2ccccc2-c2nnn[nH]2)cc1 [Compound D, 2-n-propyl-5-hydroxymethyl-1-[(2'-(1H-tetrazol-5-yl)biphenyl-4-yl)methyl]-4-trifluoromethylimidazole]
Median Retention Latency [3, 14]: 242 s
Median Retention Latency [3, 15]: 10 s
protection against / prevention of renin-induced amnesia ([3]; in words): protected against the amnesia

Molecule: C[C@H](CS)C(=O)N1CCC[C@H]1C(=O)O [captopril]
prevention of renin-induced amnesia in PA task by IVT captopril ([3]; in words, own laboratory, captopril IVT): prevented
effect on renin-induced avoidance disruption (avoidance learning; IVT prior to renin injection): prevented the renin-induced avoidance disruption
rate of acquisition of light/dark habituation performance [7]: increased the rate of acquisition
effect on scopolamine-induced disruption of performance [8]: prevented

Molecule: CCOC(=O)C(CCc1ccccc1)NC(C)C(=O)N1CC2(CC3CCC2CC3)CC1C(=O)O (stereo not drawn) [Hoe 288]
performance during retention testing, uphill avoidance (uphill avoidance): improved performance during retention testing
effect on scopolamine-induced PA amnesia [9]: partially reversed the amnesia
effect on muscarinic receptor blockade impairment of performance [10]: partially antagonized the effects of muscarinic receptor blockade on performance
change in ACh in the striatum and hypothalamus [11]: significant decrease in ACh in the striatum and hypothalamus

Molecule: [1-sarcosine, 8-threonine]angiotensin II
antagonism of AII effect on ACh release [2]: antagonized

Molecule: NC(=O)[C@@H]1CCCN1C(=O)[C@H](Cc1cnc[nH]1)NC(=O)[C@@H]1CCC(=O)N1 [thyrotropin releasing hormone]
effect on retention of a PA response [1]: no effect

B1: renin: Renin (Sigma Chemicals), a stimulator of endogenous AII biosynthesis (protein, UniProt P00797 67-406, looked up)
Renin: LTLGNTTSSVILTNYMDTQYYGEIGIGTPPQTFKVVFDTGSSNVWVPSSKCSRLYTACVYHKLFDASDSSSYKHNGTELTLRYSTGTVSGFLSQDIITVGGITVTQMFGEVTEMPALPFMLAEFDGVVGMGFIEQAIGRVTPIFDNIISQGVLKEDVFSFYYNRDSENSQSLGGQIVLGGSDPQHYEGNFHYINLIKTGVWQIQMKGVSVGSSTLLCEDGCLALVDTGASYISGSTSSIEKLMEALGAKKRLFDYVVKCNEGPTLPDISFHLGGKEYTLTSADYVFQESYSSKKLCTLAIHAMDIPPPTGPTWALGATFIRKFYTEFDRRNNRIGFALAR
Median Retention Latency ([3]; Table 1, renin 0.1 μg/5 μL IVT): 254 s
Median Retention Latency ([3]; Table 1, renin 0.5 μg/5 μL IVT): 117 s
Median Retention Latency ([3]; Table 1, renin 1.0 μg/5 μL IVT): 27 s
Median Retention Latency ([3]; Table 1, renin 3.0 μg/5 μL IVT): 56.5 s
Median Retention Latency ([3]; Table 1, renin 5.0 μg/5 μL IVT): 17 s
Median Retention Latency ([3]; Table 2, renin 1.0 μg/5 μL IVT, Compound C 0 (renin-alone group)): 48 s
Median Retention Latency ([3]; Table 3, renin 1.0 μg/5 μL IVT, Compound D 0 (renin-alone group)): 32 s
Median Retention Latency ([3]; Table 4, renin 1.0 μg/5 μL IVT, EXP655 0 (renin-alone group)): 15.5 s
memory deficit / amnesia in PA task ([3]; in words, renin IVT): produces a reliable memory deficit in rats; also recorded: dose-related amnesia
effect on avoidance learning (avoidance learning; renin into lateral ventricle (IVT)): disruption of avoidance learning
AII in cerebrospinal fluid [12]: about 5000 fmol per mL
